Source: publication PMC7806712, “A novel bifunctional aldehyde/alcohol dehydrogenase catalyzing reduction of acetyl-CoA to ethanol at temperatures up to 95 °C” (Scientific Reports, 2021)

Key:
[1] = target: T1, Aldh (CTN_1548) (Thermotoga neapolitana, UniProt B9K9U1); assay: spectrophotometric NAD(P)H formation, […] nm; format: biochemical; settings: 20 mM acetaldehyde, 1 mM NAD(P)+, no CoASH, 85 °C, various pH
T1 construct: full-length from genomic DNA, vector-encoded N-terminal residues, C-terminal His-tag kept; E. coli JM109, pHsh; heat treatment, Ni column
T1 sequence (B9K9U1 2-472): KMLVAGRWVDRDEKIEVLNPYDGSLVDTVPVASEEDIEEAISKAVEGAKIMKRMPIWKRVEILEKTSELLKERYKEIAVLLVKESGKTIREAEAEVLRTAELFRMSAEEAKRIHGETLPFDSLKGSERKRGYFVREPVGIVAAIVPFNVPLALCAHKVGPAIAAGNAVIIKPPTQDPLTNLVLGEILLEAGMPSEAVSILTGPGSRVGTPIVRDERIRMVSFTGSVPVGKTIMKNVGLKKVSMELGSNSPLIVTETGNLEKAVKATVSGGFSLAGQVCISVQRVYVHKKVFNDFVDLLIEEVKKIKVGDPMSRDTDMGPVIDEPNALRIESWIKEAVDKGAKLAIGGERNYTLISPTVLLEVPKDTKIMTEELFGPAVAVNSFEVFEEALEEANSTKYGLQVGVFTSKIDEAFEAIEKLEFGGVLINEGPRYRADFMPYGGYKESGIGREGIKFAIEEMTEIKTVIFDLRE

[2] = substrate: CC(=O)SCCNC(=O)CCNC(=O)[C@H](O)C(C)(C)COP(=O)(O)OP(=O)(O)OC[C@H]1O[C@@H](n2cnc3c(N)ncnc32)[C@H](O)[C@@H]1OP(=O)(O)O; assay: purified protein; format: biochemical, Thermotoga neapolitana; settings: 0.25 mM NADPH, pH 6.5, 80 °C, reduction to acetaldehyde

NC(=O)c1ccc[n+]([C@@H]2O[C@H](COP(=O)(O)OP(=O)(O)OC[C@H]3O[C@@H](n4cnc5c(N)ncnc54)[C@H](O)[C@@H]3O)[C@@H](O)[C@H]2O)c1 [NAD^+]
spectrophotometric NAD(P)H formation, 340 nm [1]: catalyzed the oxidation of aldehydes to acetic acid using either NAD^+ or NADP^+ as coenzyme

CC=O [ac-ald]
spectrophotometric NAD(P)H formation, 340 nm [1]: exhibited only CoA-independent activity that oxidizes ac-ald to acetic acid

B1: Fe-AAdh (CTN_0580) (Thermotoga neapolitana DSM 4359) (protein)
chain: FKISCYLPTEIIFRVGAVDELEERAKKLGKKALIVTGRSSTKKTGLLQRVQDLLKKAGVESIVFDKIVPNPISDHVDEAAEIVRKEKIDFIVGLGGGSPIDSAKAISITAPNEGKFWDYVPVGGGKIPEKSIPVVAIPTTHGTGTEADPFAVITNPETKEKVGIGYRNTFPVLSLVDPEVMKTLPKDQTAYTSMDAFYHAIEAFLNVNANPYSDVLALDAMKRIVTYLPVAYENGEDMEARTNLAWASTEAGITETLTGVIANHALEHGLSGFYPEITHGLGLCITGPYLFEYIFDHAYERLAIVGREVFGVYETDDRKAGKLAIKKLRDFQEMFGLNKRLSELGVKEEDIPKMAETGYRILNGVVVVTPGNLTAKDMEEIFRRCY
notes: full-length from genomic DNA, start Met omitted in primer (vector-encoded N-terminal residues), C-terminal His-tag kept; E. coli JM109, pHsh; heat treatment, Ni column, anaerobic
Km [2]: 1750 µM
